Drawing on patent publication US20040058956A1, “Pharmaceutical composition having an improved water solubility” (priority 2000, published 2004), this text covers melting point for 22 compounds.

Structures are written as SMILES.

What is called melting point is the temperature of the solid-liquid transition. As for `Fc1ccc(/C=C/c2nc(COc3cccc(CCCn4ccnn4)c3)co2)cc1` [B3, 1-{3-[3-({2-[(E)-2-(4-fluorophenyl)ethenyl]-1,3-oxazol-4-yl}methoxy)phenyl]propyl}-1H-1,2,3-triazole], the melting point was 105 to 106 °C. Next, `FC(F)(F)c1ccc(/C=C/c2nc(COc3ccc(CCCn4ccnn4)cc3)co2)cc1` [B5, 1-(3-{4-[(2-{(E)-2-[4-(trifluoromethyl)phenyl]ethenyl}-1,3-oxazol-4-yl)methoxy]phenyl}propyl)-1H-1,2,3-triazole]: 157 to 158 °C. For the compound `Fc1ccc(/C=C/c2nc(COc3ccc(CCCCn4ccnn4)cc3)co2)c(F)c1` [B7, 1-{4-[4-({2-[(E)-2-(2,4-difluorophenyl)ethenyl]-1,3-oxazol-4-yl}methoxy)phenyl]butyl}-1H-1,2,3-triazole], the melting point was in the range of 115 to 117 °C. Compound `Fc1ccc(/C=C/c2nc(COc3cccc(CCCn4ccnn4)c3)co2)c(F)c1` [B8, 1-{3-[3-({2-[(E)-2-(2,4-difluorophenyl)ethenyl]-1,3-oxazol-4-yl}methoxy)phenyl]propyl}-1H-1,2,3-triazole] showed a melting point of 89 to 90 °C. The compound `Cc1ccc(/C=C/c2nc(COc3ccc(CCCCn4ccnc4CCO)cc3)co2)cc1` [B10, 2-[1-[4-[4-[[2-[(E)-2-(4-methylphenyl)ethenyl]-1,3-oxazol-4-yl]methoxy]phenyl]butyl]-1H-imidazol-2-yl]-1-ethanol] had a melting point of 108 to 109 °C. With `Cc1cccc(/C=C/c2nc(COc3ccc(CCCCn4ccnc4CCO)cc3)co2)c1` [B11, 2-[1-[4-[4-[[2-[(E)-2-(3-methylphenyl)ethenyl]-1,3-oxazol-4-yl]methoxy]phenyl]butyl]-1H-imidazol-2-yl]-1-ethanol], the melting point fell in the range of 109 to 111 °C. For `CCc1ccc(/C=C/c2nc(COc3ccc(CCCCn4ccnc4CCO)cc3)co2)cc1` [B13, 2-[1-[4-[4-[[2-[(E)-2-(4-ethylphenyl)ethenyl]-1,3-oxazol-4-yl]methoxy]phenyl]butyl]-1H-imidazol-2-yl]-1-ethanol], the melting point lay in the range of 94 to 95 °C. Take `OCCc1nccn1CCCCc1ccc(OCc2coc(/C=C/c3ccc(F)cc3)n2)cc1` [B14, 2-(1-{4-[4-({2-[(E)-2-(4-fluorophenyl)ethenyl]-1,3-oxazol-4-yl}methoxy)phenyl]butyl}-1H-imidazol-2-yl)-1-ethanol]: the melting point fell in the range of 130 to 132 °C.

`OCCc1nccn1CCCCc1ccc(OCc2coc(/C=C/c3ccc(Cl)cc3)n2)cc1` [B15, 2-[1-[4-[4-[[2-[(E)-2-(4-chlorophenyl)ethenyl]-1,3-oxazol-4-yl]methoxy]phenyl]butyl]-1H-imidazol-2-yl]-1-ethanol] yielded a melting point of 127 to 128 °C.

For the compound `OCCc1nccn1CCCCc1ccc(OCc2coc(/C=C/c3ccc(Br)cc3)n2)cc1` [B16, 2-[1-[4-[4-[[2-[(E)-2-(4-bromophenyl)ethenyl]-1,3-oxazol-4-yl]methoxy]phenyl]butyl]-1H-imidazol-2-yl]-1-ethanol], the melting point lay within 149 to 150 °C. As for `OCCc1nccn1CCCc1ccc(OCc2coc(/C=C/c3ccc(F)cc3F)n2)cc1` [B20, 2-[1-[3-[4-[[2-[(E)-2-(2,4-difluorophenyl)ethenyl]-1,3-oxazol-4-yl]methoxy]phenyl]propyl]-1H-imidazol-2-yl]-1-ehtanol], the melting point lay in the range of 94 to 96 °C.

The compound `Cc1cccc(/C=C/c2nc(COc3ccc(CCCCn4ccnc4CC(O)CO)cc3)co2)c1` (stereo not shown) [B22, 3-(1-{4-[4-({2-[(E)-2-(3-methylpheyl)ethenyl]-1,3-oxazol-4-yl}methoxy)phenyl]butyl}-1H-imidazol-2-yl)-1,2-propanediol] returned a melting point of 102 to 104 °C. Compound `OCC(O)Cc1nccn1CCCCc1ccc(OCc2coc(/C=C/c3ccc(F)cc3)n2)cc1` (stereo not shown) [B23, 3-(1-{4-[4-({2-[(E)-2-(4-fluorophenyl)ethenyl]-1,3-oxazol-4-yl}methoxy)phenyl]butyl}-1H-imidazol-2-yl)-1,2-propanediol] had a melting point of 114 to 116 °C. Consider `OCC(O)Cc1nccn1CCCCc1ccc(OCc2coc(/C=C/c3ccc(C(F)(F)F)cc3)n2)cc1` (stereo not shown) [B24, 3-[1-(4-{4-[(2-{(E)-2-{4-(trifluoromethyl)phenyl}ethenyl}-1,3-oxazol-4-yl)methoxy]phenyl}butyl]-1H-imidazol-2-yl]-1,2-propanediol], for which the melting point was 142 to 143 °C. In the case of `OCC(O)Cc1nccn1CCCc1cccc(OCc2coc(/C=C/c3ccc(C(F)(F)F)cc3)n2)c1` (stereo not shown) [B25, 3-[1-(3-{3-[(2-{(E)-2-[4-(trifluoromethyl)phenyl]ethenyl}-1,3-oxazol-4-yl)methoxy]phenyl}propyl)-1H-imidazol-2-yl]-1,2-propanediol], the melting point was 102 to 104 °C.

`OCC(O)Cc1nccn1CCCc1cccc(OCc2coc(/C=C/c3ccc(F)cc3F)n2)c1` (stereo not shown) [B27, 3-(1-{3-[3-({2-[(E)-2-(2,4-difluorophenyl)ethenyl]-1,3-oxazol-4-yl}methoxy)phenyl]propyl}1H-imidazol-2-yl)-1,2-propanediol] yielded a melting point of 92 to 94 °C. In turn, `OCC(O)Cc1nccn1CCCCc1ccc(OCc2coc(/C=C/c3c(F)cccc3F)n2)cc1` (stereo not shown) [B28, 3-[1-[4-[4-[[2-[(E)-2-(2,6-difluorophenyl)ethenyl]-1,3-oxazol-4-yl]methoxy]phenyl]butyl]-1H-imidazol-2-yl]-1,2-propanediol] showed a melting point of 123 to 125 °C. Compound `Fc1ccc(/C=C/c2nc(COc3ccc(CCCCn4ccnn4)cc3)co2)cc1` [Reference Example B2, 1-{4-[4-({2-[(E)-2-(4-fluorophenyl)ethenyl]-1,3-oxazol-4-yl}methoxy)phenyl]butyl}-1H-1,2,3-triazole] registered a melting point of 124 to 125 °C. Next, `FC(F)(F)c1ccc(/C=C/c2nc(COc3cccc(CCCn4ccnn4)c3)co2)cc1` [Reference Example B6, 1-(3-{3-[(2-{(E)-2-[4-(trifluoromethyl)phenyl]ethenyl}-1,3-oxazol-4-yl)methoxy]phenyl}propyl)-1H-1,2,3-triazole]: 115 to 116 °C; `Cc1ccccc1/C=C/c1nc(COc2ccc(CCCCn3ccnc3CCO)cc2)co1` [Reference Example B12, 2-[1-[4-[4-[[2-[(E)-2-(2-methylphenyl)ethenyl]-1,3-oxazol-4-yl]methoxy]phenyl]butyl]-1H-imidazol-2-yl]-1-ethanol]: 91 to 93 °C.

Turning to `OCCc1nccn1CCCCc1ccc(OCc2coc(/C=C/c3ccc(F)cc3F)n2)cc1` [Reference Example B19, 2-[1-[4-[4-[[2-[(E)-2-(2,4-difluorophenyl)ethenyl]-1,3-oxazol-4-yl]methoxy]phenyl]butyl]-1H-imidazol-2-yl]-1-ethanol], the melting point was in the range of 93 to 95 °C. The result for `OCC(O)Cc1nccn1CCCCc1ccc(OCc2coc(/C=C/c3ccc(F)cc3F)n2)cc1` (stereo not shown) [Reference Example B26, 3-(1-{4-[4-({2-[(E)-2-(2,4-difluorophenyl)ethenyl]-1,3-oxazol-4-yl}methoxy)phenyl]butyl}-1H-imidazol-2-yl)-1,2-propanediol] reads 126 to 128 °C.
